From ChEMBL document CHEMBL1201862, “PubChem BioAssay data set” (2004)
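Cells were grown in 96-well plates and exposed to each compound for 48 hours at five concentrations; endpoints were interpolated linearly between bracketing concentrations, or set to the highest concentration if not reached. GI50: concentration for 50% inhibition of growth.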 The source made the active and inactive calls. Cut-off read from the data, not from the text of the source: active = GI50 up to about 1.1 µM and inactive = higher.

Legend:
Assay in all cases: growth of human tumour cells (NCI), 48 h
T47D = system: T47D
SF-539 = system: SF-539
SK-MEL-2 = system: SK-MEL-2
SN12C = system: SN12C
786-0 = system: 786-0
MDA-N = system: MDA-N
NCI-H460 = system: NCI-H460
HT-29 = system: HT-29
HCT-116 = system: HCT-116
LOX IMVI = system: LOX IMVI
SK-OV-3 = system: SK-OV-3
PC-3 = system: PC-3
TK-10 = system: TK-10
KM12 = system: KM12
RXF 393 = system: RXF 393
SNB-19 = system: SNB-19
BT-549 = system: BT-549
COLO 205 = system: COLO 205
SW-620 = system: SW-620

Row | Structure (SMILES) | GI50 (T47D) | GI50 (SF-539) | GI50 (SK-MEL-2) | GI50 (SN12C) | GI50 (786-0) | GI50 (MDA-N) | GI50 (NCI-H460) | GI50 (HT-29) | GI50 (HCT-116) | GI50 (LOX IMVI) | GI50 (SK-OV-3) | GI50 (PC-3) | GI50 (TK-10) | GI50 (KM12) | GI50 (RXF 393) | GI50 (SNB-19) | GI50 (BT-549) | GI50 (COLO 205) | GI50 (SW-620)
1 | COC(=O)C(=O)C(C(=O)C(=O)Nc1ccccc1C(C)=O)c1nc2ccc(C(=O)c3ccccc3)cc2nc1O (configuration not stated) | 56.4 µM (inactive) | 76.7 µM (inactive) | > 100 µM (inactive) | > 100 µM (inactive) | > 100 µM (inactive) | 40.2 µM (inactive) | 58.9 µM (inactive) | 77.8 µM (inactive) | > 100 µM (inactive) | > 100 µM (inactive) | > 100 µM (inactive) | 44 µM (inactive) | > 100 µM (inactive) | 27 µM (inactive) | 51.5 µM (inactive) | 52 µM (inactive) | > 100 µM (inactive) | – | –
2 | COCn1c2ccc(OC(C)=O)cc2c2c(=O)oc(N(C)C)nc21 | > 100 µM (inactive) | > 100 µM (inactive) | > 100 µM (inactive) | > 100 µM (inactive) | > 100 µM (inactive) | > 100 µM (inactive) | > 100 µM (inactive) | > 100 µM (inactive) | > 100 µM (inactive) | > 100 µM (inactive) | > 100 µM (inactive) | > 100 µM (inactive) | > 100 µM (inactive) | > 100 µM (inactive) | > 100 µM (inactive) | > 100 µM (inactive) | > 100 µM (inactive) | > 100 µM (inactive) | > 100 µM (inactive)
3 | O=c1oc2ccccc2cc1-c1cn2c(n1)sc1ccccc12 | > 100 µM (inactive) | > 100 µM (inactive) | > 100 µM (inactive) | > 100 µM (inactive) | > 100 µM (inactive) | > 100 µM (inactive) | > 100 µM (inactive) | 1.15 µM (inactive) | 75.5 µM (inactive) | > 100 µM (inactive) | > 100 µM (inactive) | > 100 µM (inactive) | > 100 µM (inactive) | 93.5 µM (inactive) | > 100 µM (inactive) | – | > 100 µM (inactive) | > 100 µM (inactive) | > 100 µM (inactive)
4 | CCCCCCCCCCCCNC(=O)NCC(OCC)OCC | > 10 µM (inactive) | > 10 µM (inactive) | > 10 µM (inactive) | > 10 µM (inactive) | > 10 µM (inactive) | > 10 µM (inactive) | > 10 µM (inactive) | > 10 µM (inactive) | > 10 µM (inactive) | > 10 µM (inactive) | > 10 µM (inactive) | > 10 µM (inactive) | > 10 µM (inactive) | > 10 µM (inactive) | > 10 µM (inactive) | > 10 µM (inactive) | > 10 µM (inactive) | > 10 µM (inactive) | > 10 µM (inactive)
5 | CCCC(=O)OCC1OC(n2cc(F)c(=O)[nH]c2=O)C(F)C1OC(=O)CCC (configuration not stated) | > 100 µM (inactive) | 1.63 µM (inactive) | > 100 µM (inactive) | 19.2 µM (inactive) | 18.2 µM (inactive) | > 100 µM (inactive) | 3.78 µM (inactive) | 45.4 µM (inactive) | 21.5 µM (inactive) | 47.8 µM (inactive) | > 100 µM (inactive) | > 100 µM (inactive) | 49.3 µM (inactive) | > 100 µM (inactive) | 54.7 µM (inactive) | – | 13.9 µM (inactive) | 36.4 µM (inactive) | 53.6 µM (inactive)
6 | CCOC(=O)C(Cc1c2ccccc2cc2ccccc12)(NC(C)=O)C(=O)OCC | 35.8 µM (inactive) | > 64.6 µM (inactive) | > 100 µM (inactive) | > 100 µM (inactive) | 76.4 µM (inactive) | > 83.9 µM (inactive) | > 100 µM (inactive) | > 86.9 µM (inactive) | 48.9 µM (inactive) | > 100 µM (inactive) | > 100 µM (inactive) | 50 µM (inactive) | > 100 µM (inactive) | 97.7 µM (inactive) | 42.7 µM (inactive) | > 78.5 µM (inactive) | 99.8 µM (inactive) | > 53.2 µM (inactive) | > 79.8 µM (inactive)
7 | Cn1cc(C=C(C#N)C#N)c(=O)n(C)c1=O | > 100 µM (inactive) | > 100 µM (inactive) | > 100 µM (inactive) | > 100 µM (inactive) | > 100 µM (inactive) | > 100 µM (inactive) | > 100 µM (inactive) | > 100 µM (inactive) | > 100 µM (inactive) | > 100 µM (inactive) | > 100 µM (inactive) | > 100 µM (inactive) | > 100 µM (inactive) | > 100 µM (inactive) | > 100 µM (inactive) | > 100 µM (inactive) | > 100 µM (inactive) | > 100 µM (inactive) | 56.1 µM (inactive)
8 | C[C@@H]1C[C@H](O)[C@]2(O)O[C@@H]3C[C@@]4(C=O)[C@@H](CC=C5[C@@H]4CC[C@]4(C)[C@@H](C6=CC(=O)OC6)CC[C@]54O)C[C@H]3O[C@@H]2O1 | 0.0218 µM (active) | < 0.0166 µM (active) | 0.098 µM (active) | < 0.01 µM (active) | 0.0124 µM (active) | 0.042 µM (active) | < 0.0129 µM (active) | < 0.0212 µM (active) | 0.0143 µM (active) | 0.0176 µM (active) | 0.0426 µM (active) | 0.02 µM (active) | < 0.01 µM (active) | 0.0337 µM (active) | < 0.0196 µM (active) | 0.218 µM (active) | < 0.015 µM (active) | 0.0984 µM (active) | < 0.0227 µM (active)
9 | CCCNc1[nH]c(C(C)=O)c(N)c1C(=S)Nc1ccccc1 | 47.1 µM (inactive) | 10.8 µM (inactive) | 9.2 µM (inactive) | 32.8 µM (inactive) | 26.4 µM (inactive) | 41.4 µM (inactive) | 33.9 µM (inactive) | 20 µM (inactive) | 34.8 µM (inactive) | 23.3 µM (inactive) | 45.5 µM (inactive) | > 100 µM (inactive) | 39.1 µM (inactive) | 34 µM (inactive) | 20.4 µM (inactive) | 38.4 µM (inactive) | 24.2 µM (inactive) | 31.6 µM (inactive) | > 100 µM (inactive)
10 | O=c1cc(CN2CCCCC2)nc2ccc3c(O)cc(CN4CCCCC4)nc3n12 | > 100 µM (inactive) | > 100 µM (inactive) | > 100 µM (inactive) | > 100 µM (inactive) | > 100 µM (inactive) | > 100 µM (inactive) | > 100 µM (inactive) | > 100 µM (inactive) | > 100 µM (inactive) | > 100 µM (inactive) | 48.4 µM (inactive) | > 100 µM (inactive) | > 100 µM (inactive) | > 100 µM (inactive) | > 100 µM (inactive) | > 100 µM (inactive) | > 100 µM (inactive) | > 100 µM (inactive) | > 100 µM (inactive)
11 | C#C/C=C\CCCCCCCCCCCCCC/C=C\CCCCC#CC(O)C#CCCCC/C=C\CCCCCC/C=C/C(O)C#C (configuration not stated) | 7.21 µM (inactive) | 29.6 µM (inactive) | 12.9 µM (inactive) | 24.2 µM (inactive) | 11.8 µM (inactive) | 3.8 µM (inactive) | 39.9 µM (inactive) | 18.3 µM (inactive) | 4.67 µM (inactive) | 2.55 µM (inactive) | > 75 µM (inactive) | 19.1 µM (inactive) | 21.6 µM (inactive) | 7.08 µM (inactive) | 15.8 µM (inactive) | 25.1 µM (inactive) | > 71.9 µM (inactive) | 14.1 µM (inactive) | 7.5 µM (inactive)
12 | CCSC12CC3c4cccc5c4C(CN5C(=O)c4ccccc4)CC3(O1)N(C)C2=O (configuration not stated) | 17.7 µM (inactive) | 26.9 µM (inactive) | 40.3 µM (inactive) | 17.2 µM (inactive) | 36.2 µM (inactive) | 25.3 µM (inactive) | 37.8 µM (inactive) | 42.6 µM (inactive) | 30.1 µM (inactive) | 31.3 µM (inactive) | > 100 µM (inactive) | 22.9 µM (inactive) | 48.5 µM (inactive) | 45.4 µM (inactive) | 71.1 µM (inactive) | 87.3 µM (inactive) | 26.1 µM (inactive) | 26.1 µM (inactive) | 75.5 µM (inactive)
13 | COc1ccc(/[N+]([O-])=C/c2ccc(OC(=S)S)c(OC)c2)cc1 | 28.6 µM (inactive) | 45.4 µM (inactive) | 35.5 µM (inactive) | 37.7 µM (inactive) | 50.6 µM (inactive) | 21.3 µM (inactive) | > 100 µM (inactive) | 33.3 µM (inactive) | 28.5 µM (inactive) | 38.5 µM (inactive) | 47.1 µM (inactive) | 42.4 µM (inactive) | 85.1 µM (inactive) | 8.39 µM (inactive) | 19.6 µM (inactive) | 43.6 µM (inactive) | 26.2 µM (inactive) | 44.9 µM (inactive) | 30.9 µM (inactive)
14 | CC1CC[C@]2(C(=O)O)CCC3(C)C(=C2[C@H]1C)C=CC1[C@@]2(C)CC[C@H](O)C(C)(C)C2CC[C@]13C (some centres not stated) | 19.1 µM (inactive) | 17.3 µM (inactive) | 64.9 µM (inactive) | 59.3 µM (inactive) | 29.9 µM (inactive) | 56.9 µM (inactive) | 21.6 µM (inactive) | 31.1 µM (inactive) | 17.6 µM (inactive) | 33.1 µM (inactive) | 16.6 µM (inactive) | 21.1 µM (inactive) | 33.5 µM (inactive) | 31 µM (inactive) | 3.8 µM (inactive) | 30.5 µM (inactive) | 33.7 µM (inactive) | 44.4 µM (inactive) | 45.9 µM (inactive)
